Experimental data: article PMC10111420, “Optimization of Host Cell-Compatible, Antimicrobial Peptides Effective against Biofilms and Clinical Isolates of Drug-Resistant Bacteria” (ACS Infectious Diseases, 2023)
pEC50: −log10 of the molar value. In brackets after ≈: the same amount, converted by molar mass. Several values for one entry are separate records, joined by “and”; a condition that tells them apart may be missing. Equal entries are not always repeated. Where a SMILES comes first, the peptide text is derived from it. [ ]: non-standard residue; d: D form. dAgb = N=C(N)NCC[C@@H](N)C(=O)O; βAla = NCCC(=O)O

Assays:
[1] = test system: K. pneumoniae clinical isolates; assay: microbe, parasite or virus in culture; settings: clinical isolates
Procedure: (§1) Subcultures, prepared by inoculating 25 mL of fresh tryptic soy broth (TSB) with 200 μL of an overnight culture, were grown to log phase (OD600 = 0.3–0.6), after which cell counts were determined by measuring the OD600 (1.0 = 5 × 10^8 CFU/mL for E. coli, 4 × 10^8 CFU/mL for K. pneumoniae, 4 × 10^8 CFU/mL for P. aeruginosa, 1.5 × 10^8 CFU/mL for S. aureus). Bacterial cells were diluted to appropriate concentrations in TSB. We used the following clinical bacterial isolates of Klebsiella pneumoniae in this study: Strains KP6, KP46, NDM-1, KP396, and KP398 have been previously described.[43] ST58 strains C2, C3, and I2 are also described.[41] […] MRSA, […] S. aureus strain, is SAP400, a USA400 strain of community-acquired MRSA. […] The second independent set of K. pneumoniae isolates are previously described.[20],[21]
The antibiotics were serially diluted by a factor of 2:3 horizontally across 96-well plates from Corning, 25 μL per well. One column was reserved for controls. For the assays performed in the presence of RBC, type O+ human RBCs at 0 or 2.5 × 10^9 cells/mL were added in 50 μL aliquots to all wells. […] To assess bacterial growth in the assays with RBC, the OD600 was measured after a second-day inoculation with 10 μL of solution from the original plate added to 100 μL of sterile TSB followed by overnight incubation.
(§2) Experiments were repeated four to eight times independently, with pairs of replicate measurements on each 96-well plate. After overnight growth, optical densities were measured at 660 nm and the sterilized wells were identified by having O.D. < 0.08. Nonsterilized wells were nearly opaque with OD > 0.6. For each measurement, we recorded the largest dilution that sterilized the bacteria. Statistics are done on dilution numbers, rather than calculated concentrations, because only the former have normal distributions.

human RBCs = type: cell-based
Procedure: Human O+ erythrocytes were obtained from Interstate Blood Bank, Inc. Red blood cells were subjected to four or more cycles of centrifugation at 1000g with resuspension in fresh PBS. Following the final wash step, the supernatant was clear and colorless. RBC concentration was determined using a standard hemocytometer.
Peptide was serially diluted in PBS starting at a concentration of 100 μM. The final volume of peptide in each well was 50 μL. To each well, 50 μL of RBCs in PBS at 2 × 10^8 cells/mL was added. As a positive lysis control, 1% Triton was used. The mixtures were incubated at 37 °C for 1 h, after which they were centrifuged at 1000g for 5 min. After centrifugation, 10 μL of supernatant was transferred to 90 μL of DI H2O in a fresh 96-well plate. The absorbance of released hemoglobin at 410 nm was recorded, and the fractional hemolysis was calculated based on the 100 and 0% lysis controls. At least three independent experiments were performed. Results shown are averages.

[2] = test system: MRSA SAP400, a USA400 strain; assay: microbe, parasite or virus in culture; settings: USA400
Procedure: as §1
(§3) The antibiotics were serially diluted by a factor of 2:3 horizontally across 96-well plates from Corning, 25 μL per well. One column was reserved for controls. For the assays performed in the presence of RBC, type O+ human RBCs at 0 or 2.5 × 10^9 cells/mL were added in 50 μL aliquots to all wells. Following a 30-min incubation, 50 μL of TSB, inoculated with 5 × 10^5 CFU/mL, was added to all wells, and plates were incubated overnight at 37 °C. Following overnight incubation at 37 °C, the OD600 was measured (values of less than 0.1 were considered sterilized). To assess bacterial growth in the assays with RBC, the OD600 was measured after a second-day inoculation with 10 μL of solution from the original plate added to 100 μL of sterile TSB followed by overnight incubation.
as §2

[3] = test system: Pseudomonas aeruginosa clinical isolates; assay: microbe, parasite or virus in culture; settings: clinical isolates
Procedure: as §1, §3, §2

[4] = test system: Acinetobacter baumannii (PDR) Tulane isolate; settings: PDR) Tulane isolate
[5] = test system: K. pneumoniae clinical isolates
Procedure: as §1, §3, §2

in vitro = type: cell-based, human; settings: human
Procedure: (§4) The day before cytotoxicity experiments, the 10,000 cells/well were plated in a 96-well tissue-culture plate. […] To perform the cytotoxicity assay, media was removed from the wells and replaced with peptide solutions. […] The plate was read for SYTOX fluorescence every 5 min for an hour with an excitation wavelength of 504 nm and an emission wavelength of 523 nm. Percent cytotoxicity was calculated at 60 min using the 100 and 0% lysis controls. At least three independent experiments were averaged.

[6] = test system: P. aeruginosa PAO1 (EYFP) pellicle biofilms; assay: Pellicle biofilm assay, viable cell enumeration; type: cell-based, Pseudomonas aeruginosa; settings: 2 μM, 48 h pellicle biofilm, 24 h challenge, dispersing and counting viable cells
Procedure: Here, we directly compare the antibiofilm activity of D-CONGA and D-CONGA-Q7 using a mature pellicle biofilm of P. aeruginosa.[22] […] To determine the susceptibility of pellicle biofilms to D-CONGA and D-CONGA-Q7, we cultured 2-day-old biofilms as described in the Methods section. The coverslip-adhered biofilms were exposed to challenge solution for 24 h prior to staining with SYTOX red and imaging with CLSM for EYFP, which indicates live cells, and for SYTOX Red which stains dead cells and extracellular DNA. […] The % cell survival was quantitated in two ways: (i) COMSTAT was used to compare biofilm biomass in CLSM images by estimating the biofilm biovolume, which is calculated as the overall volume/substratum area (μm^3/μm^2).[24],[25] […] (ii) The biofilms were dispersed mechanically for subsequent enumeration of viable cells such that % survival is expressed as the ratio (CFUuntreated biofilm/CFUtreated biofilm).
The susceptibility of biofilm-embedded P. aeruginosa cells to the antimicrobial peptides was studied as reported previously[23] using a P. aeruginosa PAO1 strain expressing enhanced yellow fluorescent protein (EYFP).[22] The EYFP-expressing P. aeruginosa strain was routinely grown in Pseudomonas Isolation (PI) media (20 g/L peptone, 0.3 g/L, MgCl2·6H2O, 10 g/L, K2SO4, 25 mg/L irgasan, and 20 mL/L glycerol, pH 7.0). […] Iron supplementation was carried out by addition of a small volume of filter-sterilized 10 mM (NH4)2Fe(SO4)2 (pH ∼ 2.0) solution.
In brief: Starter cultures (5 mL PI media supplemented with 10 μM Fe) were grown (14 h) from a single-colony shaking (220 rpm) at 37 °C. To grow the pellicle biofilms, starter cultures were diluted to OD600 = 0.001 in 4 mL of PI media supplemented with 20 μM Fe, placed in 35 × 10 mm Petri dishes, and incubated statically at 30 °C for 48 h. The pellicles were harvested using circular (1.5 cm diameter) glass coverslips by gently allowing the surface of a coverslip to contact the biofilm at the air–liquid interface. […]

P. aeruginosa = settings: cited from earlier work
S. aureus (ATCC 25923) = test system: S. aureus (ATCC 25923)
Procedure: (§5) All peptide variants were synthesized and purified as described previously.[5],[7] They were tested in broth dilution in the presence and absence of 1 × 10^9 human RBCs per mL, 20% of the concentration in human blood, against Escherichia coli, K. pneumoniae, and Staphylococcus aureus. […] The toxicity of the variants was tested by measuring hemolysis as well as cytotoxicity against human WI-38 fibroblast cells.
as §1, §3, §2

[7] = test system: K. pneumoniae subsp. pneumoniae (ATCC 13883)
Procedure: as §5, §1, §3, §2

[8] = test system: WI-38 human fibroblast cells; assay: in vitro; type: cell-based
Procedure: as §4

## CC(C)C[C@@H](NC(=O)[C@@H](CCCNC(=N)N)NC(=O)[C@@H](CCCNC(=N)N)NC(=O)[C@@H](C)NC(=O)[C@@H](Cc1c[nH]c2ccccc12)NC(=O)[C@@H](CCCNC(=N)N)NC(=O)[C@H](N)CCCNC(=N)N)C(=O)N[C@H](C)C(=O)N[C@H](Cc1ccccc1)C(=O)N[C@H](C)C(=O)N[C@H](Cc1ccccc1)C(=O)N[C@H](CCCNC(=N)N)C(=O)N[C@H](CCCNC(=N)N)C(N)=O [D-CONGA] (H-[dR][dR][dW][dA][dR][dR][dL][dA][dF][dA][dF][dR][dR]-NH2)
[1]
  MIC, KP 6: 4.2 µM (≈ 7.4 µg/mL)
  MIC, KP 46: 4.4 µM (≈ 7.75 µg/mL)
  MIC, KP 398: 32 µM (≈ 56.4 µg/mL)
  MIC, KP 2146NDM-1: 15 µM (≈ 26.4 µg/mL)
  MIC, KP (CRE): 23 µM (≈ 40.5 µg/mL)
  MIC, KP ATCC 33495: 5.0 µM (≈ 8.81 µg/mL)
  MIC, KP ST258 C2: 64 µM (≈ 113 µg/mL)
  MIC, KP ST258 C3: 92 µM (≈ 162 µg/mL)
  MIC, KP ST258 I2: 3.2 µM (≈ 5.64 µg/mL)
  MIC, KP ST396: 2.0 µM (≈ 3.52 µg/mL)
Human RBCs
  Hemolysis at 100 μM (fractional hemolysis): 0.06
[2]
  MIC, MRSA USA400: 2.6 µM (≈ 4.58 µg/mL)
[3]
  MIC, PA(mucoid): 4.4 µM (≈ 7.75 µg/mL)
  MIC, PA(non-mucoid): 1.3 µM (≈ 2.29 µg/mL)
[4]
  MIC, AB (PDR)Tulane: 2.4 µM (≈ 4.23 µg/mL)
[5]
  K. Pneumoniae Isolate MIC, 1000527: > 25 µM
  K. Pneumoniae Isolate MIC, 1002565: > 25 µM
  K. Pneumoniae Isolate MIC, 1100770: 7.3 µM
  K. Pneumoniae Isolate MIC, 1100975: 14 µM
  K. Pneumoniae Isolate MIC, ATCC 43816: 5.4 µM
  K. Pneumoniae Isolate MIC, ATCC 700721: 5.4 µM
  K. Pneumoniae Isolate MIC, K6: 2.7 µM
  K. Pneumoniae Isolate MIC, K 6.1: 14 µM
  K. Pneumoniae Isolate MIC, K 6.2: 14 µM
  K. Pneumoniae Isolate MIC, KP 80: 14 µM
  K. Pneumoniae Isolate MIC, KP NIH 1: > 25 µM
  K. Pneumoniae Isolate MIC, KP NIH 10: > 25 µM
  K. Pneumoniae Isolate MIC, KP NIH 24: > 25 µM
  K. Pneumoniae Isolate MIC, KP NIH 27: > 25 µM
  K. Pneumoniae Isolate MIC, KP NIH 29: 14 µM
  K. Pneumoniae Isolate MIC, KP NIH 30: 7.3 µM
  K. Pneumoniae Isolate MIC, KP NIH 31: 7.3 µM
  K. Pneumoniae Isolate MIC, KP NIH 32: > 25 µM
  K. Pneumoniae Isolate MIC, KP NIH 33: 3.6 µM

## CC(C)C[C@@H](NC(=O)CCNC(=O)[C@@H](CCCNC(=N)N)NC(=O)[C@@H](CCCNC(=N)N)NC(=O)[C@@H](C)NC(=O)[C@@H](Cc1c[nH]c2ccccc12)NC(=O)[C@@H](CCCNC(=N)N)NC(=O)[C@H](N)CCCNC(=N)N)C(=O)N[C@H](C)C(=O)N[C@H](Cc1ccccc1)C(=O)N[C@H](C)C(=O)N[C@H](Cc1ccccc1)C(=O)N[C@H](CCCNC(=N)N)C(=O)N[C@H](CCCNC(=N)N)C(N)=O [D-CONGA-βA7] (H-[dR][dR][dW][dA][dR][dR][βAla][dL][dA][dF][dA][dF][dR][dR]-NH2; N-terminus and C-terminus assumed)
Human RBCs
  Hemolysis at 100 μM (fractional hemolysis): 0.02
In vitro
  EC50 at 60 min: > 1000 µM

## CC(C)C[C@@H](NC(=O)[C@@H](CCCNC(=N)N)NC(=O)[C@H](CCCNC(=N)N)NC(=O)[C@@H](C)NC(=O)[C@@H](Cc1c[nH]c2ccccc12)NC(=O)[C@@H](CCCNC(=N)N)NC(=O)[C@H](N)CCCNC(=N)N)C(=O)N[C@H](C)C(=O)N[C@H](Cc1ccccc1)C(=O)N[C@@H](C)C(=O)N[C@H](Cc1ccccc1)C(=O)N[C@H](CCCNC(=N)N)C(=O)N[C@H](CCCNC(=N)N)C(N)=O [D-CONGA-L-R5,A10] (H-[dR][dR][dW][dA]R[dR][dL][dA][dF]A[dF][dR][dR]-NH2; N-terminus and C-terminus assumed)
Human RBCs
  Hemolysis at 100 μM (fractional hemolysis): 0.04
In vitro
  EC50 at 60 min: > 1000 µM

## colistin
[6]
  Reduction of biofilm CFU: no detectable activity
P. aeruginosa
  reported MIC: 1 μg/mL and 0.79 μM

## CC(C)C[C@@H](NC(=O)[C@@H](CCNC(=N)N)NC(=O)[C@@H](CCNC(=N)N)NC(=O)[C@@H](C)NC(=O)[C@@H](Cc1c[nH]c2ccccc12)NC(=O)[C@@H](CCCNC(=N)N)NC(=O)[C@H](N)CCCNC(=N)N)C(=O)N[C@H](C)C(=O)N[C@H](Cc1ccccc1)C(=O)N[C@H](C)C(=O)N[C@H](Cc1ccccc1)C(=O)N[C@H](CCCNC(=N)N)C(=O)N[C@H](CCCNC(=N)N)C(N)=O [D-CONGA- NorR] (H-[dR][dR][dW][dA][dAgb][dAgb][dL][dA][dF][dA][dF][dR][dR]-NH2; N-terminus and C-terminus assumed)
S. aureus (ATCC 25923)
  MIC in Broth Dilution, S. Aureus: 17 µM (≈ 29.5 µg/mL)

## CC(C)C[C@@H](NC(=O)[C@@H](CCCNC(=N)N)NC(=O)[C@@H](CCCNC(=N)N)NC(=O)[C@@H](C)NC(=O)[C@@H](Cc1c[nH]c2ccccc12)NC(=O)[C@@H](CCCNC(=N)N)NC(=O)[C@H](N)CCCNC(=N)N)C(=O)N[C@H](C)C(=O)N[C@H](Cc1ccccc1)C(=O)N[C@H](C)C(=O)N[C@H](Cc1ccccc1)C(=O)N[C@H](CCCNC(=N)N)C(N)=O [D-CONGA-ΔR13] (H-[dR][dR][dW][dA][dR][dR][dL][dA][dF][dA][dF][dR]-NH2; N-terminus and C-terminus assumed)
[7]
  MIC in Broth Dilution, K. Pneumoniae: 2.1 µM (≈ 3.37 µg/mL)
Human RBCs
  Hemolysis at 100 μM (fractional hemolysis): 0.03
[8]
  pEC50: 3.52
